Results on 1 sequence are retold here after paper PMC6769468, “Endogenous Neuropeptide Nocistatin Is a Direct Agonist of Acid-Sensing Ion Channels (ASIC1, ASIC2 and ASIC3)” (Biomolecules, 2019).

Ends that are not written are not given here.

In one assay the target is T1, rat ASIC3 (Rattus norvegicus, UniProt O35240).
T1 construct: expressed in transfected cells; host or cells: Xenopus laevis oocytes (injected)
T1 sequence (O35240 1-533): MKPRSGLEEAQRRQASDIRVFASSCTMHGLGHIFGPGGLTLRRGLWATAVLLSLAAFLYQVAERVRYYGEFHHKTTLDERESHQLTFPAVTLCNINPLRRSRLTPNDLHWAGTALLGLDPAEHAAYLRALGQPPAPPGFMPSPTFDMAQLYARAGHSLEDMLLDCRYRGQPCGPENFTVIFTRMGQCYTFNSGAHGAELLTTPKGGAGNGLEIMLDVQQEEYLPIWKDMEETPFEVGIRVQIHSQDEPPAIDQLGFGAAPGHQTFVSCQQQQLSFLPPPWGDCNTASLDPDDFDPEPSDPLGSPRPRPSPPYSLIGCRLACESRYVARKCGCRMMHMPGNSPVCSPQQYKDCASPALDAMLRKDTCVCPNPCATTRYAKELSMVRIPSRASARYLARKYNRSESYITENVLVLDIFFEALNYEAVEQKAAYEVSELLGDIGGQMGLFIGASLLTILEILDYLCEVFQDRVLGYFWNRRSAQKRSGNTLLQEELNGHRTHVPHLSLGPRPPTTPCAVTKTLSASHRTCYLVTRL
Kind of assay: Whole-cell current activation, rat ASIC3 in X. laevis oocytes. The class given is cell-based. The method, then:
Oocytes expressed rASIC1a, rASIC1b, rASIC2a, and rASIC3 homomeric channels were prepared as described. Injected oocytes were kept for two–three days at 19 °C and then for up to seven days at 15 °C in ND-96 medium supplemented with gentamycin (50 μg·mL^−1) and containing (in mM): 96 NaCl, 2 KCl, 1.8 CaCl2, 1 MgCl2, and 10 HEPES titrated to pH 7.4 with NaOH. Electrophysiological recordings were performed using the GeneClamp500 amplifier (Axon Instruments, Inverurie, UK) at a holding potential of -50 mV. The data were filtered at 20 Hz and digitized at 100 Hz using the L780 AD converter (L-Card, Moscow, Russia). Microelectrodes were filled with 3 M KCl. The external bath solution was ND-96 with pH adjusted to 7.4/7.8 (10 mM HEPES) /8.5 (10 mM Tris). Nocistatin containing solutions were freshly prepared and buffered each experimental day in ND-96 bath solution (pH 7.4/7.8/8.5). Proton-activated currents through ASIC channels were elicited by application of ND-96, in which 10 mM of HEPES was substituted with 10 mM MES at pH 5.5/ 10 mM acetic acid at pH 4.5. […]
(§1) All data are presented as mean ± SEM. The significance of normalized data differences was determined with a non-parametric Kruskal-Wallis ANOVA test with the significance level * p < 0.05 and ** p < 0.01; ns, non-significant.

Another assay concerns the target T2, rat ASIC1a (Rattus norvegicus, UniProt P55926).
T2 construct: expressed in transfected cells; host or cells: Xenopus laevis oocytes (injected)
T2 sequence (P55926 1-526): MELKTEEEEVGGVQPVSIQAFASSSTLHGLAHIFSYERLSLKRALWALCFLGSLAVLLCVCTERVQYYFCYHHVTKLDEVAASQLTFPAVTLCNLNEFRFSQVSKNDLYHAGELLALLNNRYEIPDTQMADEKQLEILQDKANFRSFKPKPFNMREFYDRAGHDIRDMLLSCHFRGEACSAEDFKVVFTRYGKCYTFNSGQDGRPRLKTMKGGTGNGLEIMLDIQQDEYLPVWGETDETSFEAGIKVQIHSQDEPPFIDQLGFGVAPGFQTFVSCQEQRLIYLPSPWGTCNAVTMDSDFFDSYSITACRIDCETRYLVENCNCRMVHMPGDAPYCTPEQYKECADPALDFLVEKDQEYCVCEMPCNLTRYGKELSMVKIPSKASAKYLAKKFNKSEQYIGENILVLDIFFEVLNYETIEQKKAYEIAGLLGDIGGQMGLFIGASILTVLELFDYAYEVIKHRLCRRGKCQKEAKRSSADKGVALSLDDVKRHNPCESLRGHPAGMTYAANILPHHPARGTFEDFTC
Kind of assay: Whole-cell current activation, rat ASIC1a in X. laevis oocytes. The class given is cell-based. The settings on record: for ASIC1a current amplitude, % of control pH 5.5 stimulus: n = 4. The method, then: Oocytes expressed rASIC1a, rASIC1b, rASIC2a, and rASIC3 homomeric channels were prepared as described. Injected oocytes were kept for two–three days at 19 °C and then for up to seven days at 15 °C in ND-96 medium supplemented with gentamycin (50 μg·mL^−1) and containing (in mM): 96 NaCl, 2 KCl, 1.8 CaCl2, 1 MgCl2, and 10 HEPES titrated to pH 7.4 with NaOH. Electrophysiological recordings were performed using the GeneClamp500 amplifier (Axon Instruments, Inverurie, UK) at a holding potential of -50 mV. The data were filtered at 20 Hz and digitized at 100 Hz using the L780 AD converter (L-Card, Moscow, Russia). Microelectrodes were filled with 3 M KCl. The external bath solution was ND-96 with pH adjusted to 7.4/7.8 (10 mM HEPES) /8.5 (10 mM Tris). Nocistatin containing solutions were freshly prepared and buffered each experimental day in ND-96 bath solution (pH 7.4/7.8/8.5). Proton-activated currents through ASIC channels were elicited by application of ND-96, in which 10 mM of HEPES was substituted with 10 mM MES at pH 5.5/ 10 mM acetic acid at pH 4.5. The whole-cell recording was performed if a response to the control pH stimulus was stable in at least two replicates. Nocistatin-activated currents were elicited by application of nocistatin containing solutions with various concentrations of the peptide.
Extracellular solutions were applied using a computer-controlled valve system with a flow rate of 1 mL/min. The oocyte chamber volume was 80 µL. The validity of the application system for studying ASIC channels expressed in oocytes was confirmed in experiments by application of a Cl-free solution (containing (in mM): 130 NMDG, 1 MgGluc2, 2 KGluc, 5 HEPES) (pH 7.4). Fast application of proton/peptide-activating solution was performed at a flow rate of 1 mL/sec (the change of the bath solution occurred within 100 ms), followed by PC controlled flow stopping (from 5 to 15 s).
Analysis of electrophysiological data was performed using OriginPro 8.6 software (OriginLab, Northampton, MA, USA). Curves were fitted using different logistic equations:
(a) Usual logistic equation [33] F1(x) = A – A/(1 + (x/x0)^nH), where F1(x) is the current amplitude at nocistatin concentration x ([x]) (response at concentration x), A is the maximal current amplitude (or the maximum asymptote or the stabilized response for an infinite concentration), x0 is the value of [x] at which the function reach half their maximum value (the EC50 value), and nH is the Hill coefficient (slope factor or a level of cooperativity);
(b) Equation for the model of unequal sites occupation F2(x) = A/(1 + (x/EC501)^nH)*(1 + (x/EC502)), multiplication of two logistic equations where F2(x) is the current amplitude at nocistatin concentration x, A is the maximal current amplitude, [EC501] is the half-maximal concentration of nocistatin binding to pool of “cooperative” sites (or 0.5 probability of “cooperative” sites’ occupancy) and [EC502] is the half-maximal concentration of nocistatin binding to additional unequal site (or 0.5 probability of single site occupancy), and nH is the Hill coefficient (slope factor) for the pool of cooperative sites;
(d) The time course of curves’ decay was fitted using a mono-exponential equation: F4(x) = A1*e^(-x/τdes) + A0, where F4(x) is the current amplitude at the time point x, A1 is the maximal current amplitude, A0 is its steady-state value and τdes is the […].
as §1

For “MPRVRSVVQARDAEPEADAEPVADEADEVEQKQLQ [rNS]”, the “tmax greater than for protons by” value at rat ASIC3 (1 mM rNS vs pH drop 7.4–5.5, slower activation) is ~ 49%. Besides, the “τdes (desensitization time constant)” value at rat ASIC3 (1 mM rNS, conditioning pH 7.4, mean ± S.E. from 4–7 measurements) is given as 0.4 ± 0.1 s; on rat ASIC1a (1 mM rNS, conditioning pH 7.4, mono-exponential fit, mean ± S.E. from 4–7 measurements), 1.4 ± 0.1 s. Further, the “ASIC1a current amplitude, % of control pH 5.5 stimulus” value worked out at 95.5 ± 1.8% at rat ASIC1a (1 mM nocistatin, conditioning pH 7.4); 89.5 ± 2.8% on rat ASIC1a (1 mM nocistatin, conditioning pH 7.8); 86.7 ± 2.5% on rat ASIC1a (1 mM nocistatin, conditioning pH 8.5). In addition, the “Maximal activating effect versus response to a pH drop of 7.4–5.5” value on rat ASIC1a (1 mM nocistatin, extracellular pH 7.4) was “comparable to the response to a pH drop of 7.4–5.5”. Further, at rat ASIC1a (1 mM rNS vs pH drop 7.4–5.5), the “Acurrent, nocistatin versus protons” value was “did not differ between protons and nocistatin”. Further, at rat ASIC1a (1 mM rNS vs pH drop 7.4–5.5), the “tmax, nocistatin versus protons” value was “no differences”. The “Hill coefficient (nH), integral current activation” value at rat ASIC1a (integral current, equation F2, n = 5) is given as 4.8 ± 0.7. Also, at rat ASIC1a (peak amplitude, pH 7.4, equation F2, n = 5), the “Hill coefficient (nH) of activation” value is listed as 7.44 ± 0.95.
